Data taken from patent US9546157B2, “Asymmetric piperidinyl-substituted ureas as medicines” (Helsinn Healthcare SA, priority 2014, dated 2017).

Experiments:
[1] = target: T1, GHSR1a (Homo sapiens, UniProt Q92847); test: Calcium FLIPR assay, GHSR-1a agonism; type: cell-based; set-up: Emax: unit not given here; conditions: HEK293/GHSR1a cells
T1 construct: expressed in transfected cells; host or cells: HEK293
Method in brief: (§1)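 HEK293 cells expressing GHSR1a, seeded 24 hr earlier and loaded with calcium dye for 30-60 min at room temperature or 37° C, were read by FLIPR fluorescence. Agonism: compound added at t=20 sec, calcium followed 2 minutes. Antagonism: compound plus ghrelin (10 nM) at t=20 sec; potency from reduction of ghrelin response.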

[2] = target: T1, GHSR1a; test: Calcium FLIPR assay, GHSR-1a antagonism (reduction of ghrelin response); type: cell-based; conditions: HEK293/GHSR1a cells, ghrelin 10 nM
Method in brief: as §1

T1 sequence (Q92847 whole entry): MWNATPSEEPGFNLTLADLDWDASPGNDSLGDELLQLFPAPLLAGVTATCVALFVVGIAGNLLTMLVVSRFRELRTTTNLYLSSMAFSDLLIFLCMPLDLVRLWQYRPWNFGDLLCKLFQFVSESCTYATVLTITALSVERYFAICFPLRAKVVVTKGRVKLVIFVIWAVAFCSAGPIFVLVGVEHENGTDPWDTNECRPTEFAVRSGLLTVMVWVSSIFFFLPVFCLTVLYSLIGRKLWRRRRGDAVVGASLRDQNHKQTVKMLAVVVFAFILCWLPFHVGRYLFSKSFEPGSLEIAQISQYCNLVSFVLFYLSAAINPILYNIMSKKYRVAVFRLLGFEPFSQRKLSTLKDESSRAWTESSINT

| SMILES | EC50 [1] [nM] | IC50 [2] [nM] | Emax [1] |
| --- | --- | --- | --- |
| CC(NC(=O)N(C)C1CCN(C)CC1)c1ccc(-c2cncc(-c3cccs3)c2)c(Cl)c1Cl (stereo not shown) [Compound H0717, 3-(1-(2,3-dichloro-4-(5-(thiophen-2-yl)pyridin-3-yl)phenyl)ethyl)-1-methyl-1-(1-methylpiperidin-4-yl)urea] | > 30000 | 396 |  |
| COC(=O)C(NC(=O)N(C)C1CCN(C)CC1)c1ccc(-c2cnccn2)c(Cl)c1Cl (stereo not shown) [Compound H0922, methyl 2-(2,3-dichloro-4-(pyrazin-2-yl)phenyl)-2-(3-methyl-3-(1-methylpiperidin-4-yl)ureido)acetate] | > 30000 | 2800 |  |
| CC(NC(=O)N(C)C1CCN(C)CC1)c1ccc(-c2cncc(C(F)(F)F)n2)c(Cl)c1Cl (stereo not shown) [Compound H0910, 3-(1-(2,3-dichloro-4-(6-(trifluoromethyl)pyrazin-2-yl)phenyl)ethyl)-1-methyl-1-(1-methylpiperidin-4-yl)urea] | 19 | 125 | 1359 |
| CC(NC(=O)N(C)C1CCN(C)CC1)c1ccc(-c2cncc(CC#N)c2)c(Cl)c1Cl (stereo not shown) [Compound H0699, 3-(1-(2,3-dichloro-4-(5-(cyanomethyl)pyridin-3-yl)phenyl)ethyl)-1-methyl-1-(1-methylpiperidin-4-yl)urea] | > 30000 | 171 |  |
| CC(O)C#Cc1ccc(C(C)NC(=O)N(C)C2CCN(C)CC2)c(Cl)c1Cl (stereo not shown) [Compound H0733, 3-(1-(2,3-dichloro-4-(3-hydroxybut-1-yn-1-yl)phenyl)ethyl)-1-methyl-1-(1-methylpiperidin-4-yl)urea] | > 30000 | 95 |  |
| CC(NC(=O)N(C)C1CCN(C)CC1)c1ccc(-c2cncc(C#N)n2)c(Cl)c1Cl (stereo not shown) [Compound H0788, 3-(1-(2,3-dichloro-4-(6-cyanopyrazin-2-yl)phenyl)ethyl)-1-methyl-1-(1-methylpiperidin-4-yl)urea] | 20 | 88 | 1230 |
| CCCN(C(=O)NC(C)c1ccc(-c2cnccn2)c(Cl)c1Cl)C1CCN(C)CC1 (stereo not shown) [Compound H0827, 3-(1-(2,3-dichloro-4-(pyrazin-2-yl)phenyl)ethyl)-1-(1-methylpiperidin-4-yl)-1-propylurea] | > 30000 | 35 |  |
| COCc1cncc(-c2ccc(C(C)NC(=O)N(C)C3CCN(C)CC3)c(Cl)c2Cl)c1 (stereo not shown) [Compound H0708, 3-(1-(2,3-dichloro-4-(5-(methoxymethyl)pyridin-3-yl)phenyl)ethyl)-1-methyl-1-(1-methylpiperidin-4-yl)urea] | > 30000 | 1370 |  |
| CC(NC(=O)N(C)C1CCN(C)CC1)c1ccc(-c2cnc(N3CCN(C)CC3)nc2)c(Cl)c1Cl (stereo not shown) [Compound H0799, 3-(1-(2,3-dichloro-4-(2-(4-methylpiperazin-1-yl)pyrimidin-5-yl)phenyl)ethyl)-1-methyl-1-(1-methylpiperidin-4-yl)urea] | 14 | 5.4 | 5031 |
| CC(NC(=O)N(C)C1CCN(C)CC1)c1ccc(-c2cnc(N3CCN(C)CC3)c(C#N)c2)c(Cl)c1Cl (stereo not shown) [Compound H0821, 3-(1-(2,3-dichloro-4-(5-cyano-6-(4-methylpiperazin-1-yl)pyridin-3-yl)phenyl)ethyl)-1-methyl-1-(1-methylpiperidin-4-yl)urea] | > 30000 | 2300 |  |
| CC(NC(=O)N(C)C1CCN(C)CC1)c1ccc(C#N)c(Cl)c1Cl (stereo not shown) [Compound H0523, 3-(1-(2,3-dichloro-4-cyanophenyl)ethyl)-1-methyl-1-(1-methylpiperidin-4-yl)urea] | > 30000 | 668 |  |
| CC(NC(=O)N(C)C1CCN(C)CC1)c1ccc(-c2cc(F)cc(CO)c2)c(Cl)c1Cl (stereo not shown) [Compound H0696, 3-(1-(2,3-dichloro-3′-fluoro-5′-(hydroxymethyl)-[1,1′-biphenyl]-4-yl)ethyl)-1-methyl-1-(1-methylpiperidin-4-yl)urea] | > 30000 | 120 |  |
| CON(C)C(=O)c1ccc(-c2ccc(C(C)NC(=O)N(C)C3CCN(C)CC3)c(Cl)c2Cl)s1 (stereo not shown) [Compound H0692, 5-(2,3-dichloro-4-(1-(3-methyl-3-(1-methylpiperidin-4-yl)ureido)ethyl)phenyl)-N-methoxy-N-methylthiophene-2-carboxamide] | > 1000 | 550 |  |
| COc1ccc(C(C#N)NC(=O)N(C)C2CCN(C)CC2)c(Cl)c1Br (stereo not shown) [Compound H0658, 3-((3-bromo-2-chloro-4-methoxyphenyl)(cyano)methyl)-1-methyl-1-(1-methylpiperidin-4-yl)urea] | 9 | 6 | 2400 |
| CC(NC(=O)N(C)C1CCN(C)CC1)c1ccc(-c2cnc3ccccc3n2)c(Cl)c1Cl (stereo not shown) [Compound H0828, 3-(1-(2,3-dichloro-4-(quinoxalin-2-yl)phenyl)ethyl)-1-methyl-1-(1-methylpiperidin-4-yl)urea] | > 30000 | 376 |  |
| CC(NC(=O)N(C)C1CCN(C)CC1)c1ccc(-c2cnn(C3CC3)c2)c(Cl)c1Cl (stereo not shown) [Compound H0842, 3-(1-(2,3-dichloro-4-(1-cyclopropyl-1H-pyrazol-4-yl)phenyl)ethyl)-1-methyl-1-(1-methylpiperidin-4-yl)urea] | 67 | 64 | 1411 |
| CC(NC(=O)N(C)C1CCN(C)CC1)c1ccc(-c2sccc2CO)c(Cl)c1Cl (stereo not shown) [Compound H0664, 3-(1-(2,3-dichloro-4-(3-(hydroxymethyl)thiophen-2-yl)phenyl)ethyl)-1-methyl-1-(1-methylpiperidin-4-yl)urea] | > 30000 | 261 |  |
| CC(NC(=O)N(C)C1CCN(C)CC1)c1ccc(-c2cnc(N)s2)c(Cl)c1Cl (stereo not shown) [Compound H0792, 3-(1-(4-(2-aminothiazol-5-yl)-2,3-dichlorophenyl)ethyl)-1-methyl-1-(1-methylpiperidin-4-yl)urea] | 7 | 16 | 1096 |
| CC(NC(=O)N(C)C1CCN(C)CC1)c1ccc(-c2cnc(CO)cn2)c(Cl)c1Cl (stereo not shown) [Compound H0770, 3-(1-(2,3-dichloro-4-(5-(hydroxymethyl)pyrazin-2-yl)phenyl)ethyl)-1-methyl-1-(1-methylpiperidin-4-yl)urea] | 294 | 700 | 1783 |
| CC(NC(=O)N(C)C1CCN(C)CC1)c1ccc(-c2cncc(C3CCCC3)c2)c(Cl)c1Cl (stereo not shown) [Compound H0718, 3-(1-(2,3-dichloro-4-(5-cyclopentylpyridin-3-yl)phenyl)ethyl)-1-methyl-1-(1-methylpiperidin-4-yl)urea] | > 30000 | 499 |  |
| CC(NC(=O)N(C)C1CCN(C)CC1)c1ccc(C#Cc2ccccc2)c(Cl)c1Cl (stereo not shown) [Compound H0609, 3-(1-(2,3-dichloro-4-(phenylethynyl)phenyl)ethyl)-1-methyl-1-(1-methylpiperidin-4-yl)urea] | > 30000 | 517 |  |
| CC(=O)/C=C(\Cl)c1ccc(C(C)NC(=O)N(C)C2CCN(C)CC2)c(Cl)c1Cl (stereo not shown) [Compound H0702, (Z)-3-(1-(2,3-dichloro-4-(1-chloro-3-oxobut-1-en-1-yl)phenyl)ethyl)-1-methyl-1-(1-methylpiperidin-4-yl)urea] | 1100 | 96 | 1940 |
